Test results: patent publication US6495376B1, “Methods and compositions for regulating protein-protein interactions” (Beth Israel Deaconess Medical Center, priority 1999, dated 2002)
Values joined by “and” are separate entries in the source; they are usually repeats but may differ in a detail not shown here. Equal entries are not always repeated. Where two headings read alike, the source gives them in different places.

Assays:
[1] = test system: MPM-2 antigens (mitotic phosphoproteins) of mitotic HeLa cell extracts; assay: GST pulldown from mitotic HeLa cell extracts, MPM-2 immunoblotting (phosphoprotein-binding activity); conditions: for Phosphoprotein binding activity: GST-fusion proteins with mitotic extracts, MPM2 antibody; for binding to mitotic phosphoproteins / MPM-2 antigens (in words): mitotic HeLa cell extracts; for effect of phosphorylation by PKA on interaction with MPM2 antigens: protein phosphorylated by PKA before binding
Experimental: GST-fusion proteins containing the WW-domain, PPIase-domain or the entire Pin 1 protein were prepared and incubated with interphase (G1/S arrested; Control) or dividing (M phase) HeLa cell extracts using well-known procedures (Lu, K. P., et al., Nature 380:544 (1996); (Shen, M., et al., Genes & Devl. 12:706 (1998)). Briefly, HeLa cells were arrested at the G1/S boundary or mitosis by incubation with thymidine and aphidicolin or nocodazole for 16 h, respectively. The cells were lysed and supernatants incubated with 10 μl of agarose beads containing GST-Pin1; GST-WW-domain of Pin1; GST-PPIase domain of Pin1; or control GST for 2 h at 4° C. The phosphorylated precipitated proteins were washed 5 times in buffer containing 1% Triton X-100 before subjecting to immunoblotting analysis using MPM-2 antibody, as described previously (Yaffe, M. B. et al., Science 278:1957 (1997); Schukowski, et al., Biochemistry 37:5566 (1998); Shen, M. et al., Genes & Dev 12:706 (1998)). MPM-2 recognizes a subset of mitotic phosphoproteins including Pin1-binding proteins such as cdc25.
(§1) Pintide and its nonphosphorylated counterpart were synthesized and incubated with GST-Pin1 or the GST-WW-domain of Pin1 in a binding buffer, using established procedures (Shen, M. et al., Genes & Dev 12:706 (1998)). After a 1 hr incubation, mitotic HeLa cell extracts were added and subjected to GST pull down experiments, followed by immunoblotting analysis using the MPM-2 antibody. To obtain semi-quantitative data, films of immunoblots were scanned at the region of 55 kDa, the major Pin1-binding protein, and data analyzed using ImageQuan (ScanJet II CX). The peptide binding constants were measured using a fluorescence polarization assay (Jiskoot, W. et al., Anal Biochem 196:421 (1991)). Peptides were fluorescein labeled at the N-terminus using the Fluorescein Amine Labeling Kit (Pan Vera Corp.) and purified by TLC according to the manufacturer's […]. To prevent nonspecific labeling, a Pintide analogue (WFYpSPFLE) SEQ ID NO: 8 and the nonphosphorylated control were used. Various concentrations of Pin1 and its mutant proteins were incubated with 0.1 μM of the labeled peptides in a binding buffer containing 50 mM HEPES, pH 7.4, 100 mM NaCl, 2% glycerol. Fluorescence polarization values were obtained using a Pan Vera Beacon 2000 system, as described by the manufacturer.
To examine the effect of Pin1 phosphorylation on Pin1 binding to ligands, Pin1 and Pin1 mutant proteins were incubated with the catalytic subunit of PKA and PKC (a mixture of α, β and γ, UBI) in a kinase reaction buffer containing 500 μM cold ATP at 30° C. for 15 min (Lu, K. P. et al., Anal. Biochem. 196:421 (1991)). The reactions were stopped by adding SDS sample buffer and reaction products separated on SDS-gels, followed by autoradiography. Pin1 proteins were isolated and used to bind MPM-2 antigens from mitotic extracts from HeLa cells, as previously described (Shen, M., et al., Genes & Dev 12:706 (1998)). Experiments were also performed with PKA and PKC, casein kinase, cyclin B/Cdc2 and SRPK1 kinases.

[2] = biological target: WFYpSPFLE (Pintide); assay: Fluorescence anisotropy (polarization) binding to fluorescein-labeled phosphorylated Pintide analogue; conditions: for binding to Pintide (in words): fluorescence anisotropy
Text: To determine the affinity of Pin1, and its WW or PPIase domain for phosphopeptides, peptides were labeled with fluorescein and their interactions with Pin1 measured using quantitative fluorescence anisotrophy. To prevent nonspecific labeling, a Pintide analogue (WFYpSPFLE) SEQ ID NO: 9 was used, which binds Pin1 with a high affinity based on the peptide library screen as described by (Lu, K. P. et al., U.S. Ser. No. 60/058,164 (1997), the teachings of which are incorporated herein in their entirety.
as §1

[3] = biological target: EQPLpTPVTDL (Cdc25 Peptide); assay: Fluorescence anisotropy binding to fluorescein-labeled phosphorylated Cdc25 peptide; conditions: GST-WW-domains
[4] = test system: peptide substrate; assay: PPIase activity assay with peptide substrate; type: biochemical; conditions: relative to wild-type protein defined as 100%
[5] = test system: neurofibrillary tangles in AD brain sections; assay: Binding of recombinant Pin1 added onto brain sections, immunostaining; design: species or system human; conditions: Pin1 at 0.5 μM
Experimental: To further confirm that Pin1 has specific affinity for PHFs, recombinant Pin1 was added onto brain sections, washed, and then subjected to immunostaining using affinity purified Pin1 antibodies to localize bound Pin1. To localization exogenously added Pin1 in brain sections, 50 μm sections were cut from formalin fixed frontal cortex or hippocampus of human brains, endogenous peroxidase activity blocked with H2O2, followed by incubation with Pin1 at 0.5 μM. The sections were incubated with the mAb TG3 or anti-Pin1 antibodies that had been purified using GST-Pin1 glutathione beads, and visualized by the immunoperoxidase staining protocol, to detect endogenous Pin1, fixed brain sections were first microwaved in an antigen retrieval buffer (Biogenex), as described by the manufacturer, then subjected to immunostaining procedure.

[6] = test system: temperature-sensitive ptf1 yeast mutant (YPM2); assay: Rescue of temperature-sensitive ptf1 yeast mutant (in vivo function); type: cell-based; conditions: YPM2 cells, restrictive temperature
Experimental: Given the essential role of the WW-domain in conferring Pin1-binding specificity in vitro, a critical question is whether this domain is important in vivo. To address this question, experiments using the PIN1 yeast homologue, ESS1/PTF1 were performed. ESS1/PTF1 is essential for cell growth and human Pin1 can carry out this essential function when transfected into yeast cells (Lu, K. P. et al., Nature 380:544 (1996); Hanes, S. D. et al., Yeast 5:55 (1989); Hani, J. et al., FEBS Lett. 365:198 (1995)). A temperature-sensitive ptf1 mutant strain, YPM2, grows at the permissive temperature (23° C.), but not at the restrictive temperature (30° C.) (Hanes, S. D. et al., Yeast 5:55 (1989); Hani, J. et al., FEBS Lett. 365:198 (1995)). This phenotype is completely rescued by a 1.5 kb PTF1 genomic fragment, which also contains the promoter and the 3′ processing sequence (FIG. 3). To insure that all human Pin1 proteins were expressed at physiological levels under normal regulation, the coding sequence of the fully functional ESS1/PTF1 gene in a Yepvector was replaced with the coding sequence of the human PIN1 (or Pin1 mutant) cDNA (FIG. 3) and transformed into a temperature-sensitive ptf1 strain. Transformants were selected on minimal media minus Leu at the permissive temperature (23° C.) and protein expression was detected by immunoblotting analysis using 12CA5 monoclonal antibody specific for the HA epitope tag inserted at the N-terminus. […] Those strains expressing similar levels of Pin1 and Pin1 mutants were grown at permissive and nonpermissive temperature.

[7] = high affinity binding site, read-out: WFYpSPFLE Kd(μM) High affinity

Pin1 WW-domain: N-terminal WW-domain (amino acids 1-54) of Pin1 (MADEEKLPPGWEKRMSRSSGRVYYFNHITNASQWERPSGNSSSGGKNGQGEPAR; left off: a dimerising Fc or GST)
Phosphoprotein binding activity [1]: + (binding was detected) | binding to mitotic phosphoproteins / MPM-2 antigens (in words) [1]: strong binding | effect of phosphorylation by PKA on interaction with MPM2 antigens [1]: completely abolished | Kd ([2]; GST-WW-domains, fluorescein-labeled peptide, average of three independent experiments, read-out: Kd (μM) Pintide WFYpSPFLE): 1 µM | binding to Pintide (in words) [2]: bound Pintide | Kd [2, 7]: 1.2 µM and 1 µM | Kd [3]: 2.2 µM

Pin1: wild-type human prolyl isomerase (PPIase) Pin1 with N-terminal WW-domain; tag cleaved in Table 2
PPlase Activity (%) [4]: 100% | binding in AD brain sections [5]: strongly bound neurofibrillary tangles and neurites | Phosphoprotein binding activity [1]: + (binding was detected) | binding to mitotic phosphoproteins / MPM-2 antigens (in words) [1]: strong binding | effect of phosphorylation by PKA on interaction with MPM2 antigens [1]: completely abolished | binding to Pintide (in words) [2]: bound Pintide | Kd [2, 7]: 1.2 µM | Kd ([2]; low affinity binding site, read-out: WFYpSPFLE Kd(μM) Low affinity): 11 µM | complementation of temperature-sensitive ptf1 phenotype (in words) [6]: fully complemented the temperature-sensitive phenotype
